Results as given in US20260325469A1, “COMPOSITION FOR ANIMALS” (priority 2023, published 2026).

How the values were obtained:
[1] = Example 1.3: feeding experiments, TLA composition via drinking water, feed free from medical zinc, weight gain and diarrhoea; assay type: in vivo, piglets (day-one weaned); details: comparison of AWG ratio with Example 1.2, light diarrhoea environment
Method: In Example 1.3, a composition comprising [COMPOUND LEFT OUT] lactic acid, [COMPOUND LEFT OUT] acetic acid and tannic acid was administered to piglets in combination with a feed free from medical zinc.
A batch solution was prepared using [COMPOUND LEFT OUT] lactic acid (80% lactic acid, Frederiksen, DK); acetic acid (5%, Organic Vinegar, Netto, DK) and tannic acid (Sigma) corresponding to a content of 10% Tannic acid, 69% lactic acid and 1.4% acetic acid. This composition is hereafter named TLA stock (tannic acid, lactic acid and acetic acid stock).
Two independent one-week feeding experiments were carried out with day-one weaned piglets (Example 1.3.1 and 1.3.2).
The concentrated TLA stock feed additive was prepared and used to mix with the standard setup for drinking water used by the weaned pigs at the farm. The dry feed is as described above.
The feed received by both the test and control groups was free from medical zinc. In each experiment, two test groups were administered the TLA composition in drinking water while two control groups received standard tap water. The total weight of all piglets in each group was measured at the initiation of the experiment (Day 0, “Start total weight”) and after one (Day 7) and two weeks (Day 14) as indicated (“End total weight”). […]
Following one-week administration, the total weight gain of each group was monitored. […]

[2] = Solubility in concentrated stock solution; assay type: physicochemical; details: concentrated stock solution / acidic solutions
Excerpt: A concentrated stock solution is required to facilitate administration through drinking water.

[3] = system: E. coli cells producing F4 fimbriae; test: Example 4.1: E. coli agglutination test; assay type: cell-based; details: concentrations identical to Example 3.1; OD450 1.5 cells, 5 μL + 5 μL on glass plate
Method: The effect of three different compositions on E. coli agglutination were tested: (i) lactic acid and acetic acid, (ii) tannic acid, (iii) lactic acid, acetic acid and tannic acid.
A recombinant E. coli strain constitutively expressing F4 fimbriae was washed three times with 0.9% sodium chloride, and cells corresponding to an optical density (OD450) of 1.5 were resuspended in 50 μL of 0.9% sodium chloride.
5 μL of the cell suspension was mixed with 5 μL of either (i) lactic acid and acetic acid, (ii) tannic acid or (iii) lactic acid, acetic acid and tannic acid on the surface of a glass plate.
The concentration of each of these components were identical to those delivered to the pigs in Example 3.1.

Compound | Contribution of tannic acid to weight increase [1] | Solubility [2] | E. coli agglutination [3]
O=C(OC[C@H]1O[C@@H](OC(=O)c2cc(O)c(O)c(OC(=O)c3cc(O)c(O)c(O)c3)c2)[C@H](OC(=O)c2cc(O)c(O)c(OC(=O)c3cc(O)c(O)c(O)c3)c2)[C@@H](OC(=O)c2cc(O)c(O)c(OC(=O)c3cc(O)c(O)c(O)c3)c2)[C@@H]1OC(=O)c1cc(O)c(O)c(OC(=O)c2cc(O)c(O)c(O)c2)c1)c1cc(O)c(O)c(OC(=O)c2cc(O)c(O)c(O)c2)c1 [tannic acid, 1,2,3,4,6-penta-O-{3,4-dihydroxy-5-[(3,4,5-trihydroxybenzoyl)oxy]benzoyl}-D-glucopyranose] | additional effect of tannic acid in the increase in weight | high solubility in acidic solutions | does not show any significant aggregation of the cells
albumin-tannate [reference compound] |  | problems with solubility, resulting in non-homogeneous solutions comprising a precipitate | 
